Measured values reported in the supplement of paper PMC11061612.

How the values were obtained:
Experiment in all cases: combination Emax (second highest fraction inhibited in the dose matrix, 72 h); higher = more inhibition; extreme values may be limits of the assay
[1] = tested on: 697 (B-Lymphoblastic Leukemia)
Summary of the method: (§1)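 After 24 hours at 37°C and 5% CO2 in 1536-well plates, cells in DMEM/F12 or RPMI plus 10% FBS received two-drug dose matrices for 72 hours. Viability came from CellTiter-Glo 2.0 luminescence and was scaled as inhibition, anchored at 0 by vehicle wells and at 1 by blank wells. Combination Emax is taken as the second-highest inhibition in the matrix, and Bliss excess as the observed combination effect less EA + EB − EA·EB, with EA and EB the single-agent effects.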

[2] = tested on: C3A (Hepatocellular Carcinoma)
Summary of the method: as §1

[3] = tested on: COR-L23 (Non-Small Cell Lung Carcinoma)
Summary of the method: as §1

[4] = tested on: CTV-1 (T-Lymphoblastic Leukemia)
Summary of the method: as §1

[5] = tested on: DB (B-Cell Non-Hodgkin's Lymphoma)
Summary of the method: as §1

[6] = tested on: DMS-273 (Small Cell Lung Carcinoma)
Summary of the method: as §1

[7] = tested on: EM-2 (Chronic Myelogenous Leukemia)
Summary of the method: as §1

[8] = tested on: ES7 (Ewing's Sarcoma)
Summary of the method: as §1

[9] = tested on: G-292-Clone-A141B1 (Osteosarcoma)
Summary of the method: as §1

[10] = tested on: HT-29 (Colorectal Carcinoma)
Summary of the method: as §1

[11] = tested on: J82 (Bladder Carcinoma)
Summary of the method: as §1

[12] = tested on: JiyoyeP-2003 (Burkitt's Lymphoma)
Summary of the method: as §1

[13] = tested on: KATOIII (Gastric Carcinoma)
Summary of the method: as §1

[14] = tested on: LU-99A (Non-Small Cell Lung Carcinoma)
Summary of the method: as §1

[15] = tested on: NCI-H1694 (Small Cell Lung Carcinoma)
Summary of the method: as §1

[16] = tested on: NCI-H1781 (Lung Adenocarcinoma)
Summary of the method: as §1

[17] = tested on: NCI-H1793 (Lung Adenocarcinoma)
Summary of the method: as §1

[18] = tested on: RH-1 (Ewing's Sarcoma)
Summary of the method: as §1

[19] = tested on: SW1783 (Low Grade Glioma)
Summary of the method: as §1

[20] = tested on: TE-5 (Esophageal Squamous Cell Carcinoma)
Summary of the method: as §1

Structure (SMILES) | combination Emax [1] | combination Emax [2] | combination Emax [3] | combination Emax [4] | combination Emax [5] | combination Emax [6] | combination Emax [7] | combination Emax [8] | combination Emax [9] | combination Emax [10] | combination Emax [11] | combination Emax [12] | combination Emax [13] | combination Emax [14] | combination Emax [15] | combination Emax [16] | combination Emax [17] | combination Emax [18] | combination Emax [19] | combination Emax [20]
COc1cccc2c1C(=O)c1c(O)c3c(c(O)c1C2=O)C[C@@](O)(C(=O)CO)C[C@@H]3O[C@H]1C[C@H](N)[C@H](O)[C@H](C)O1 [Doxorubicin] + Cc1cc2ncnn2cc1Nc1ncc2c(n1)n(C1CCOCC1)c(=O)n2C [AZD7648] (first compound max 1 µM, 7x7, partner max 10 µM) | 1 | 0.485 | 0.432 | 1 | 0.896 | 0.866 | 0.978 | 1 | 0.247 | 0.657 | 0.41 | 0.981 | 0.319 | 0.751 | 0.921 | 0.932 | 0.378 | 1 | 0.481 | 0.678
COc1cc2ncnc(Nc3ccc(F)c(Cl)c3)c2cc1OCCCN1CCOCC1 [Gefitinib] + CC(C)n1c(=O)n(C)c2cnc3cc(F)c(-c4ccc(OCCCN5CCCCC5)nc4)cc3c21 [AZD1390] (first compound max 10 µM, 7x7, partner max 0.3 µM) | 0.422 | 0.377 | 0.0639 | 0.785 | 0.328 | 0.325 | 0.174 | 0.385 | 0.0339 | 0.315 | 0.139 | 0.119 | 0.353 | 0.154 | 0.19 | 0.538 | 0.143 | 0.188 | 0.0328 | 0.15
CS(=O)(=O)CCNCc1ccc(-c2ccc3ncnc(Nc4ccc(OCc5cccc(F)c5)c(Cl)c4)c3c2)o1 [Lapatinib] + C[C@@H](Oc1cc(-c2cnn(C3CCNCC3)c2)cnc1N)c1c(Cl)ccc(F)c1Cl [Crizotinib] (first compound max 10 µM, 7x7, partner max 10 µM) | 0.996 | 0.951 | 0.949 | 1 | 0.953 | 0.954 | 1 | 0.927 | 0.71 | 0.942 | 0.662 | 0.863 | 0.627 | 0.603 | 0.291 | 0.774 | 0.793 | 0.939 | 0.248 | 0.502
CC(=O)c1c(C)c2cnc(Nc3ccc(N4CCNCC4)cn3)nc2n(C2CCCC2)c1=O [Palbociclib] + CC1(C)CCC(CN2CCN(c3ccc(C(=O)NS(=O)(=O)c4ccc(NCC5CCOCC5)c([N+](=O)[O-])c4)c(Oc4cnc5[nH]ccc5c4)c3)CC2)=C(c2ccc(Cl)cc2)C1 [Venetoclax] (first compound max 10 µM, 7x7, partner max 1 µM) | 1 | 0.447 | 0.106 | 0.921 | 0.962 | 0.351 | 0.287 | 0.644 | 0.0906 | 0.399 | 0.237 | 0.614 | 0.358 | 0.319 | 0.404 | 0.118 | 0.197 | 0.277 | 0.0456 | 0.0622
CC(=O)c1c(C)c2cnc(Nc3ccc(N4CCNCC4)cn3)nc2n(C2CCCC2)c1=O [Palbociclib] + Cc1c2c(nn1C)CSCc1cc(n(C)n1)CSc1cc(c3ccccc3c1)OCCCc1c(C(=O)O)n(C)c3c-2c(Cl)ccc13 [AZD5991] (first compound max 10 µM, 7x7, partner max 1 µM) | 1 | 0.592 | 0.203 | 0.843 | 1 | 0.94 | 0.484 | 0.714 | 0.161 | 0.449 | 0.25 | 0.588 | 0.406 | 0.346 | 0.667 | 0.403 | 0.212 | 0.853 | 0.159 | 0.157
CC(=O)c1c(C)c2cnc(Nc3ccc(N4CCNCC4)cn3)nc2n(C2CCCC2)c1=O [Palbociclib] + Cn1cnc2c(F)c(Nc3ccc(Br)cc3Cl)c(C(=O)NOCCO)cc21 [Selumetinib] (first compound max 10 µM, 7x7, partner max 10 µM) | 0.833 | 0.556 | 0.327 | 0.905 | 0.785 | 0.351 | 0.459 | 0.609 | 0.12 | 0.769 | 0.138 | 0.587 | 0.465 | 0.542 | 0.306 | 0.235 | 0.318 | 0.228 | 0.0922 | 0.213
COc1cccc(OCCCN)c1-c1cc(Nc2cnc(C#N)cn2)n[nH]1 [Prexasertib] + C=CCn1c(=O)c2cnc(Nc3ccc(N4CCN(C)CC4)cc3)nc2n1-c1cccc(C(C)(C)O)n1 [AZD1775] (first compound max 1 µM, partner max 1 µM) | 1 | 0.674 | 0.652 | 1 | 0.945 | 0.984 | 0.986 | 0.966 | 0.32 | 0.844 | 0.577 | 0.984 | 0.55 | 0.806 | 0.932 | 0.736 | 0.532 | 1 | 0.549 | 0.625
COc1cccc(OCCCN)c1-c1cc(Nc2cnc(C#N)cn2)n[nH]1 [Prexasertib] + CCc1c2c(nc3ccc(O)cc13)-c1cc3c(c(=O)n1C2)COC(=O)[C@]3(O)CC [SN-38] (first compound max 1 µM, 7x7, partner max 0.3 µM) | 1 | 0.649 | 0.852 | 0.999 | 0.983 | 0.997 | 0.982 | 1 | 0.34 | 0.936 | 0.894 | 1 | 0.562 | 0.798 | 1 | 0.993 | 0.769 | 1 | 0.847 | 0.818
COc1cccc(OCCCN)c1-c1cc(Nc2cnc(C#N)cn2)n[nH]1 [Prexasertib] + CN(C)CCCOc1ccc(-c2ccc3ncc4c(c3c2)n(C2CCOCC2)c(=O)n4C)cn1 [AZD0156] (first compound max 1 µM, 7x7, partner max 1 µM) | 1 | 0.613 | 0.683 | 0.988 | 0.771 | 0.923 | 0.986 | 0.838 | 0.33 | 0.858 | 0.407 | 0.987 | 0.522 | 0.823 | 0.794 | 0.45 | 0.468 | 1 | 0.445 | 0.543
COc1cccc(OCCCN)c1-c1cc(Nc2cnc(C#N)cn2)n[nH]1 [Prexasertib] + C[C@@H]1COCCN1C2=NC(=NC(=C2)C3(CC3)[S@](=N)(=O)C)C4=C5C=CNC5=NC=C4 [AZD6738] (first compound max 1 µM, 7x7, partner max 10 µM) | 1 | 0.528 | 0.685 | 0.948 | 0.748 | 0.916 | 0.994 | 0.855 | 0.325 | 0.857 | 0.522 | 0.981 | 0.586 | 0.767 | 0.823 | 0.486 | 0.423 | 1 | 0.496 | 0.548
COc1cccc(OCCCN)c1-c1cc(Nc2cnc(C#N)cn2)n[nH]1 [Prexasertib] + Cc1cc2ncnn2cc1Nc1ncc2c(n1)n(C1CCOCC1)c(=O)n2C [AZD7648] (first compound max 1 µM, 7x7, partner max 10 µM) | 1 | 0.611 | 0.711 | 0.966 | 0.766 | 0.909 | 0.99 | 0.876 | 0.295 | 0.861 | 0.377 | 0.984 | 0.526 | 0.804 | 0.808 | 0.468 | 0.432 | 1 | 0.473 | 0.526
COc1cccc(OCCCN)c1-c1cc(Nc2cnc(C#N)cn2)n[nH]1 [Prexasertib] + O=C(c1cc(Cc2n[nH]c(=O)c3ccccc23)ccc1F)N1CCN(C(=O)C2CC2)CC1 [Olaparib] (first compound max 1 µM, 7x7, partner max 10 µM) | 1 | 0.53 | 0.657 | 0.821 | 0.687 | 0.919 | 1 | 0.976 | 0.3 | 0.84 | 0.462 | 0.986 | 0.431 | 0.765 | 0.797 | 0.631 | 0.532 | 1 | 0.508 | 0.521
COc1cc2c(cc1OCCCCCOc1cc3c(cc1OC)C(=O)N1C=C(C)C[C@H]1C=N3)N=C[C@@H]1CC(C)=CN1C2=O [SG3199] + O=C(c1cc(Cc2n[nH]c(=O)c3ccccc23)ccc1F)N1CCN(C(=O)C2CC2)CC1 [Olaparib] (first compound max 0.001 µM, 7x7, partner max 10 µM) | 0.984 | 0.215 | 0.221 | 0.127 | 0.347 | 0.308 | 0.292 | 0.832 | 0.145 | 0.0781 | 0.187 | 0.124 | 0.0764 | 0.356 | 0.112 | 0.45 | 0.138 | 0.189 | 0.0897 | 0.0521
